Data on 32 compounds can be found in US4587342A, “2,4-diamino-(substituted-benzopyran(quinolyl,isoquinoly)methyl)pyrimidine s useful as antibacterials” (priority 1980, dated 1986).

In one series the test system is Staph. aureus. The series is described as follows: MIC vs Staph. aureus (Table 2). It is filed as cell-based. The following applies: Staphylococcus aureus, strain not given. The text has this: (§1) The compounds of the present invention were subjected to standard tests in order to determine the minimum inhibitory concentration in μg/ml needed to inhibit a range of bacterial microorganisms in-vitro.

Series [1] has as its system Vibrio cholerae ATCC14035. In words: MIC against Vibrio cholerae ATCC14035 in vitro. Type of series: cell-based. The following applies: ATCC14035, read-out: Minimum Inhibitory Concentration (MIC).
Description: as §1

The subject of the next series is Pr. mirabilis S2409. In words: MIC against Pr. mirabilis S2409 in vitro. Type of series: cell-based. As to conditions: Proteus mirabilis, read-out: Minimum Inhibitory Concentration (MIC).
Description: as §1

A further series has as its system Gonococci. The series is described as follows: MIC against Gonococci in vitro. As to conditions: Gonococci (average 17 strains); read-out: Minimum Inhibitory Concentration (MIC). It is filed as cell-based.
Description: as §1

A further series relates to St. agalactiae CN1143. The series is described as follows: MIC against St. agalactiae CN1143 in vitro. It is filed as cell-based. The following applies: Streptococcus agalactiae, read-out: Minimum Inhibitory Concentration (MIC).
Description: as §1

The test system of a further series is Esch. coli CN314. The series is described as follows: MIC against Esch. coli CN314 in vitro. As to conditions: Escherichia coli, read-out: Minimum Inhibitory Concentration (MIC). Type of series: cell-based.
Description: as §1

A further series has as its system St. faecalis CN478. The series is described as follows: MIC against St. faecalis CN478 in vitro. Type of series: cell-based. As to conditions: Enterococcus faecalis, read-out: Minimum Inhibitory Concentration (MIC).
Description: as §1

The subject of the next series is Staph. aureus CN491. The series is described as follows: MIC against Staph. aureus CN491 in vitro. It is filed as cell-based. As to conditions: Staphylococcus aureus, read-out: Minimum Inhibitory Concentration (MIC).
Description: as §1

Another series has as its system B. fragilis. The series is described as follows: MIC against B. fragilis in vitro. It is filed as cell-based. The following applies: Bacteroides fragilis; B. fragilis (average 3-10 strains); read-out: Minimum Inhibitory Concentration (MIC).
Description: as §1

For the next series, the system named is Meningococci. The series is described as follows: MIC against Meningococci in vitro. Type of series: cell-based. The following applies: Meningococci (average 5 strains); read-out: Minimum Inhibitory Concentration (MIC).
Description: as §1

The next series can be described thus: Acute toxicity in mouse. The following applies: in vivo, ip; i.p. mouse.

Converted amounts (≈) assume the structure as drawn.

In the series with Staph. aureus, `COc1cc(Cc2cnc(N)nc2N)c2c(c1OC)OCCC2` [Compound 2, 2,4-Diamino-5-(3,4-dihydro-7,8-dimethoxy-2 --H--1-benzopyran-5-yl) pyrimidine] had an MIC of 0.5 µg/mL (≈ 1.58 µM).
The same measure, in the same setting: for `COc1ccc(Cc2cnc(N)nc2N)c2cccnc12` [Compound 3, 2,4-Diamino-5-(8-methoxy-5-quinolylmethyl)-pyrimidine] the value was 0.5 µg/mL (≈ 1.78 µM).
Regarding `COc1cc(Cc2cnc(N)nc2N)c2c(c1OC)OC(C)C=C2` (stereo not shown) [Compound 4, 2,4-Diamino-5-(7,8-dimethoxy-2-methyl-2 --H--1-benzopyran-5-ylmethyl) pyrimidine lactate], the MIC turned out to be 0.05 µg/mL in series [1]; 5 µg/mL in the series with Pr. mirabilis S2409; 4.6 µg/mL with Gonococci; 0.05 µg/mL in the series on St. agalactiae CN1143; 0.1 µg/mL with Esch. coli CN314; 0.01 µg/mL in the series with St. faecalis CN478. Besides, the MIC stood at 0.05 µg/mL in the series with Staph. aureus CN491, 0.48 µg/mL in the series on B. fragilis and 2.8 µg/mL in the series with Meningococci.
In the series on Staph. aureus, `Cc1cc(Cc2cnc(N)nc2N)c2cccnc2c1N.Cl` [Compound 5, 2,4-Diamino-5-(8-amino-7-methyl-5-quinolylmethyl)-pyrimidine hydrochloride] came in with an MIC of 0.5 µg/mL.
Same read-out and setting: for `COc1cc(Cc2cnc(N)nc2N)c2c(c1OC)OC(C)(C)C=C2` [Compound 6, 2,4-Diamino-5-(7,8-dimethoxy-2,2-dimethyl-2 --H--1-benzopyran-5-ylmethyl) pyrimidine lactate] the value was 0.05 µg/mL; for `COc1cc(Cc2cnc(N)nc2N)c2ccc(=O)oc2c1OC` [Compound 7, 2,4-Diamino-5-(7,8-dimethoxy-2-oxo-2 --H--1-benzopyran-5-ylmethyl)pyrim], 0.5 µg/mL (≈ 1.52 µM).
In general, LD50 refers to the dose at which mortality reaches 50%. With `COc1cc(Cc2cnc(N)nc2N)c2cccnc2c1N.Cl.Cl` [Compound 8, 2,4-Diamino-5-(8-amino-7-methoxy-5-quinolylmethyl)-pyrimidine dihydrochloride], the MIC in [1] amounted to 0.05 µg/mL; in the series with Pr. mirabilis S2409, 1 µg/mL; with Gonococci, 11.1 µg/mL; in the series with St. agalactiae CN1143, 0.1 µg/mL; in the series on Esch. coli CN314 it was 0.1 µg/mL; in the series with St. faecalis CN478, 0.1 µg/mL. The MIC was 0.1 µg/mL in the series with Staph. aureus CN491, 5.2 µg/mL in the series on B. fragilis and 3.7 µg/mL in the series on Meningococci. For the same compound, the LD50 in “Acute toxicity in mouse” was determined as 500 mg/kg.
Regarding `Cc1cc(Cc2cnc(N)nc2N)c2cccnc2c1N(C)C.Cl.Cl` [Compound 9, 2,4-Diamino-5-(8-dimethylamino-7-methyl-5-quinolylmethyl)pyrimidine dihydrochloride], the MIC in series [1] was 0.5 µg/mL; with Pr. mirabilis S2409 it was 5 µg/mL; in the series with Gonococci, over 25 µg/mL; in the series with St. agalactiae CN1143, 0.5 µg/mL; in the series on Esch. coli CN314 it was 0.1 µg/mL; with St. faecalis CN478, 0.05 µg/mL. For the same compound, the MIC was 0.5 µg/mL in the series on Staph. aureus CN491, 7.8 µg/mL in the series on B. fragilis and over 25 µg/mL in the series with Meningococci.
Take `COc1cc(Cc2cnc(N)nc2N)c2c(c1OC)OC=CC2` [Compound 10, 2,4-Diamino-5-(7,8-dimethoxy-4 --H--1-benzopyran-5-ylmethyl)pyrimidine acetate]: the MIC in the series with Staph. aureus turned out to be 0.05 µg/mL.
As to `C=CCc1cc(Cc2cnc(N)nc2N)c2cccnc2c1O` [Compound 11, 5-(7-Allyl-8-hydroxy-5-quinolylmethyl)-2,4-diaminopyrimidine], the MIC in the series on Staph. aureus came out at 1 µg/mL (≈ 3.25 µM).
Still for that read-out and setting: for `C=CCc1cc(Cc2cnc(N)nc2N)c2cccnc2c1OC` [Compound 12, 5-(7-Allyl-8-methoxy-5-quinolylmethyl)-2,4-diaminopyrimidine] the value was 0.05 µg/mL (≈ 0.156 µM).
Still for that read-out and setting: for `C=CCc1cc(Cc2cnc(N)nc2N)c2ccc(C)nc2c1O` [Compound 13, 5-(7-Allyl-8-hydroxy-2-methyl-5-quinolylmethyl)-2,4-diaminopyrimidine] the value was 0.1 µg/mL (≈ 0.311 µM); for `CC=Cc1cc(Cc2cnc(N)nc2N)c2cccnc2c1OC` [Compound 14, 2,4-Diamino-5-(8-methoxy-7-(1-propenyl)-5-quinolylmethyl)pyrimidine], 0.05 µg/mL (≈ 0.156 µM).
On the same count and under the same terms, for `COc1cc(Cc2cnc(N)nc2N)c2cccnc2c1N(C)C.Cl.Cl` [Compound 15, 2,4-Diamino-5-(8-dimethylamino-7-methoxy-5-quinolylmethyl)pyrimidine dihydrochloride] the value was 0.5 µg/mL; for `C=CCc1cc(Cc2cnc(N)nc2N)c2ccc(C)nc2c1OC` [Compound 16, 5-(7-Allyl-8-methoxy-2-methyl-5-quinolylmethyl)-2,4-diaminopyrimidine], 0.05 µg/mL (≈ 0.149 µM).
For the compound `Cc1cc(Cc2cnc(N)nc2N)c2cccnc2c1.Cl.Cl` [Compound 17, 2,4-Diamino-5-(7-methyl-5-quinolylmethyl)-pyrimidine dihydrochloride], the MIC with Staph. aureus was 0.5 µg/mL.
In the series with Staph. aureus, `CC(=O)O.Cc1cc(Cc2cnc(N)nc2N)c2cccnc2c1-n1cccc1` [Compound 18, 2,4-Diamino-5-(8-(1-pyrrolyl)-7-methyl-5-quinolylmethyl)pyrimidine acetate] showed an MIC of 0.5 µg/mL.
In the series on Staph. aureus, `COc1cc(Cc2cnc(N)nc2N)c2c(c1OC)OC(C)=CC2` [Compound 19, 2,4-Diamino-5-(7,8-dimethoxy-2-methyl-4H--1-benzopyran-5-ylmethyl)pyrimidine] yielded an MIC of 0.05 µg/mL (≈ 0.152 µM).
For the compound `CCCc1cc(Cc2cnc(N)nc2N)c2cccnc2c1OC` [Compound 20, 2,4-Diamino-5-(8-methoxy-7-propyl-5-quinolylmethyl)-pyrimidine], the MIC with Staph. aureus came to 0.05 µg/mL (≈ 0.155 µM).
In the case of `COc1cc(Cc2cnc(N)nc2N)c2c(c1OC)OC(C)CC2` (stereo not shown) [Compound 22, 2,4-Diamino-5-(7,8-dimethoxy-3,4-dihydro-2-methyl-2 --H---1-benzopyran-5-ylmethyl)pyrimidine], in the series with Staph. aureus, the MIC was found to be 0.1 µg/mL (≈ 0.303 µM).
On to `COc1cc(Cc2cnc(N)nc2N)c2cccnc2c1O` [Compound 23, 2,4-Diamino-5-(8-hydroxy-7-methoxy-5-quinolylmethyl)pyrimidine], for which, in the series on Staph. aureus, the MIC turned out to be 5 µg/mL (≈ 16.8 µM).
On the same count and under the same terms, for `COc1cc(Cc2cnc(N)nc2N)c2cccnc2c1OC` [Compound 24, 2,4-Diamino-5-(7,8-dimethoxy-5-quinolylmethyl)pyrimidine] the value was 0.1 µg/mL (≈ 0.321 µM).
With `COc1cc(Cc2cnc(N)nc2N)c2ccncc2c1N.Cl.Cl` [Compound 25, 2,4-Diamino-5-(8-amino-7-methoxy-5-isoquinolylmethyl)pyrimidine dihydrochloride], the MIC in series [1] turned out to be 0.05 µg/mL; in the series with Pr. mirabilis S2409, 5 µg/mL; with Gonococci, 8.1 µg/mL; in the series with St. agalactiae CN1143, 0.05 µg/mL; in the series on Esch. coli CN314, 0.05 µg/mL; in the series on St. faecalis CN478, 0.05 µg/mL. Besides, the MIC in the series with Staph. aureus CN491 turned out to be 0.05 µg/mL; in the series with B. fragilis, 2.6 µg/mL; with Meningococci, 3.1 µg/mL.
In the series with Staph. aureus, `CCOc1cc(Cc2cnc(N)nc2N)c2cccnc2c1N` [Compound 26, 2,4-Diamino-5-(8-amino-7-ethoxy-5-quinolylmethyl)pyrimidine] displayed an MIC of 0.05 µg/mL (≈ 0.161 µM).
On the same count and under the same terms, for `C=CCc1cc(Cc2cnc(N)nc2N)c2cccnc2c1OCCOC` [Compound 27, 2,4-Diamino-5-(7-allyl-8-(2-methoxyethoxy)-5-quinolylmethyl)pyrimidine] the value was 0.1 µg/mL (≈ 0.274 µM); for `Cl.Cl.Nc1ncc(Cc2cc(Cl)c(N)c3ncccc23)c(N)n1` [Compound 28, 2,4-Diamino-5-(8-amino-7-chloro-5-quinolylmethyl)pyrimidine dihydrochloride], 0.1 µg/mL; for `COc1cc(Cc2cnc(N)nc2N)c2cccnc2c1` [Compound 29, 2,4-Diamino-5-(7-methoxy-5-quinolylmethyl)pyridimine], 0.5 µg/mL (≈ 1.78 µM).
As for `CSc1cc(Cc2cnc(N)nc2N)c2cccnc2c1N.Cl.Cl` [Compound 30, 2,4-Diamino-5-(8-amino-7-methylthio-5-quinolylmethyl)pyrimidine dihydrochloride], in the series with Staph. aureus, the MIC was 0.1 µg/mL.
Take `COc1cc(Cc2cnc(N)nc2N)c2cccnc2c1SC` [Compound 31, 2,4-Diamino-5-(7-methoxy-8-methylthio-5-quinolylmethyl)pyrimidine]: the MIC was determined as 0.05 µg/mL (≈ 0.153 µM) in series [1]; 5 µg/mL (≈ 15.3 µM) in the series with Pr. mirabilis S2409; 34.4 µg/mL (≈ 105 µM) with Gonococci; 0.5 µg/mL (≈ 1.53 µM) in the series on St. agalactiae CN1143; 0.1 µg/mL (≈ 0.305 µM) in the series on Esch. coli CN314; 0.05 µg/mL (≈ 0.153 µM) in the series on St. faecalis CN478. Besides, the MIC in the series on Staph. aureus CN491 is 0.05 µg/mL (≈ 0.153 µM); in the series on B. fragilis, 3.1 µg/mL (≈ 9.47 µM); in the series on Meningococci, 14.4 µg/mL (≈ 44 µM).
In the series with Staph. aureus, `Cc1cc(Cc2cnc(N)nc2N)c2ncccc2c1N` [Compound 34, 2,4-Diamino-5-(5-amino-6-methyl-8-quinolylmethyl)pyrimidine] returned an MIC of 5 µg/mL (≈ 17.8 µM).
Same read-out and setting: for `COc1cc(Cc2cnc(N)nc2N)c2ncccc2c1N` [Compound 35, 2,4-Diamino-5-(5-amino-6-methoxy-8-quinolylmethyl)pyrimidine] the value was 0.5 µg/mL (≈ 1.69 µM); for `C=CCc1cc(Cc2cnc(N)nc2N)c2c(c1OC)NCCC2` [Compound 36, 5-(7-allyl-8-methoxy-5-(1,2,3,4-tetrahydro-quinolylmethyl))-2,4-diaminopyrimidine], 0.05 µg/mL (≈ 0.154 µM).
